Experimental data: PubChem BioAssay (NCI)
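Following 48 hours of exposure in 96-well plates, responses at five concentrations were used to interpolate endpoints linearly. GI50 is the concentration that inhibits growth by half. TGI marks complete inhibition of growth.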

Tests used:
Assay in all cases: DTP human tumour cell line panel, 48 h
HCT-116 colon = tested on: HCT-116 colon
SF-539 CNS = tested on: SF-539 CNS
HCT-15 colon = tested on: HCT-15 colon
SR leukemia = tested on: SR leukemia
CCRF-CEM leukemia = tested on: CCRF-CEM leukemia
TK-10 renal = tested on: TK-10 renal
SK-MEL-5 melanoma = tested on: SK-MEL-5 melanoma
CAKI-1 renal = tested on: CAKI-1 renal
HCC-2998 colon = tested on: HCC-2998 colon
MDA-MB-231 breast = tested on: MDA-MB-231 breast

| SMILES | TGI (HCT-116 colon) | TGI (SF-539 CNS) | TGI (HCT-15 colon) | TGI (SR leukemia) | TGI (CCRF-CEM leukemia) | TGI (TK-10 renal) | TGI (SK-MEL-5 melanoma) | TGI (CAKI-1 renal) | TGI (HCC-2998 colon) | GI50 (HCT-116 colon) | GI50 (SF-539 CNS) | GI50 (HCT-15 colon) | GI50 (CCRF-CEM leukemia) | GI50 (TK-10 renal) | GI50 (SK-MEL-5 melanoma) | GI50 (MDA-MB-231 breast) | TGI (MDA-MB-231 breast) | GI50 (CAKI-1 renal) | GI50 (HCC-2998 colon) | GI50 (SR leukemia) |
| --- | --- | --- | --- | --- | --- | --- | --- | --- | --- | --- | --- | --- | --- | --- | --- | --- | --- | --- | --- | --- |
| CNS(=O)(=O)NN(C)S(=O)(=O)c1ccc(Br)cc1 | > 100 µM | > 100 µM | > 100 µM | > 100 µM | > 100 µM | > 100 µM | > 100 µM | > 100 µM | > 100 µM | – | – | – | – | – | – | – | – | – | – | – |
| CC(=O)OC[C@@H]1[C@H]2CC(=O)O[C@H]2C[C@H]1OC(C)=O | > 100 µM | > 100 µM | > 100 µM | > 100 µM | > 100 µM | > 100 µM | > 100 µM | > 100 µM | > 100 µM | – | – | – | – | – | – | – | – | – | – | – |
| CCCN(CCC)C(=O)Cc1c2n(c3ccccc13)Cc1ccccc1-2 | > 100 µM | > 100 µM | > 100 µM | > 100 µM | > 100 µM | > 100 µM | > 100 µM | > 100 µM | > 100 µM | – | – | – | – | – | – | – | – | – | – | – |
| CC(=S)NNC(=O)c1ccncc1 | > 100 µM | > 100 µM | > 100 µM | > 100 µM | > 100 µM | > 100 µM | > 100 µM | > 100 µM | > 100 µM | – | – | – | – | – | – | – | – | – | – | – |
| COc1ccc(C=NC23CC4CC(CC(C4)C2)C3)cc1 | > 100 µM | > 100 µM | > 100 µM | > 100 µM | > 100 µM | > 100 µM | > 100 µM | > 100 µM | > 100 µM | – | – | – | – | – | – | – | – | – | – | – |
| CCS(=O)(=O)c1ccc(OC)c(Nc2nccc(N(C)c3ccc4c(C)[nH]nc4c3)n2)c1 | > 25 µM | 9.86 µM | 18.3 µM | – | > 25 µM | 14.5 µM | 8.38 µM | 12.3 µM | > 25 µM | 8.69 µM | 4.17 µM | 5.3 µM | 8.15 µM | 5.15 µM | 4 µM | 3.66 µM | 9.45 µM | 3.75 µM | 8.18 µM | – |
| O=C(Nc1ccncc1)C(=O)c1cn(S(=O)(=O)c2ccccc2F)c2ccccc12 | > 37.8 µM | 7.88 µM | > 100 µM | – | > 100 µM | > 49.3 µM | 16.2 µM | > 70.8 µM | > 100 µM | 0.504 µM | 1.19 µM | 0.546 µM | 4.35 µM | 9.71 µM | 0.693 µM | 3.97 µM | 64.9 µM | 2.43 µM | 5.36 µM | – |
| C#CC[C@H](c1nc2cc(Cl)ccc2c(=O)n1Nc1ccccc1)N(CCCN)C(=O)c1cccc(Cl)c1F | 1.3 µM | 0.65 µM | 5.68 µM | – | 1.91 µM | 2.8 µM | 2.14 µM | 8.19 µM | 1.39 µM | 0.0403 µM | 0.183 µM | 2.15 µM | 0.134 µM | 1.39 µM | 0.727 µM | 0.107 µM | 0.601 µM | 2.6 µM | 0.178 µM | – |
| O=[N+]([O-])c1cc(Br)cc2c1[nH]c1ccc(Br)cc12 | 21.5 µM | 71.7 µM | > 100 µM | – | – | 8.48 µM | > 100 µM | 11.9 µM | > 100 µM | 5 µM | 12.2 µM | 28 µM | – | 2.46 µM | 8.03 µM | 2.71 µM | > 100 µM | 2.23 µM | 9.86 µM | – |
| Cc1cc(N/N=C/c2nc(-c3ccccc3)oc2C)c2cc(Cl)ccc2n1 | 3.39 µM | 3.17 µM | 3.37 µM | – | – | 3.29 µM | 3.2 µM | 3.1 µM | 3.23 µM | 1.82 µM | 1.7 µM | 1.68 µM | – | 1.79 µM | 1.76 µM | 1.85 µM | 3.69 µM | 1.69 µM | 1.73 µM | – |
| CN(/N=N/c1nc(OCc2ccccc2)c2[nH]cnc2n1)C(=O)N(C)/N=N/c1nc(OCc2ccccc2)c2[nH]cnc2n1 | > 100 µM | > 100 µM | > 100 µM | – | > 100 µM | > 100 µM | 61.5 µM | 63.5 µM | 81.6 µM | 35.2 µM | 38.4 µM | 35.4 µM | 49.6 µM | 27.2 µM | 20.9 µM | 41.2 µM | > 100 µM | 17 µM | 19.3 µM | – |
| O=C(O)c1ccc([N+](=O)[O-])c2c(=O)c3ccccc3[nH]c12 | > 100 µM | > 100 µM | > 100 µM | > 100 µM | > 100 µM | – | > 100 µM | > 100 µM | > 100 µM | – | – | – | – | – | – | – | – | – | – | – |
| COc1ccc(/C=C2\CNC/C(=C\c3ccc(OC)cc3)C2=O)cc1 | 13 µM | 41.6 µM | > 100 µM | > 100 µM | 44.8 µM | > 100 µM | > 100 µM | 81.2 µM | > 100 µM | – | – | – | – | – | – | – | – | – | – | – |
| Cc1nn2c(/C=C3/C(=O)Nc4ccccc43)c(-c3ccc(Cl)cc3)nc2s1 | – | 1.27 µM | > 50 µM | > 50 µM | > 50 µM | 32.1 µM | > 50 µM | > 50 µM | – | – | 0.0174 µM | 15.3 µM | 12.3 µM | 12.3 µM | 26.3 µM | 7.05 µM | 21.3 µM | 13.3 µM | – | 13.8 µM |
| O=C1NC2(O)c3ccccc3C(=O)C2(O)N1c1ccccc1 (stereo not given) | > 100 µM | > 100 µM | > 100 µM | > 100 µM | > 100 µM | > 100 µM | – | > 100 µM | > 100 µM | – | – | – | – | – | – | – | – | – | – | – |
| C=CCN=C1N=C(CC(=O)OCC)CS1 | > 100 µM | > 100 µM | > 100 µM | – | > 100 µM | > 100 µM | > 100 µM | > 100 µM | > 100 µM | – | – | – | – | – | – | – | – | – | – | – |
| Cc1cc(S(=O)(=O)NC#N)c(S/C(=N\Nc2ccc([N+](=O)[O-])cc2)c2ccccc2)cc1Cl | 30.6 µM | – | – | – | 51.5 µM | 38.3 µM | 35.7 µM | 45.8 µM | 30.9 µM | 13.8 µM | – | – | 20.2 µM | 16 µM | 19.3 µM | – | – | 21.1 µM | 17.2 µM | – |
